Test results reported in PubChem BioAssay (NCI).
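GI50 marks 50% less growth. Definition used: TGI = concentration required for complete inhibition of growth.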

Tests used:
Assay in all cases: NCI-60 cell line screen, 384-well format
HL-60(TB) leukemia = tested on: HL-60(TB) leukemia
BT-549 breast = tested on: BT-549 breast
HCT-15 colon = tested on: HCT-15 colon
SK-OV-3 ovarian = tested on: SK-OV-3 ovarian
COLO 205 colon = tested on: COLO 205 colon
K-562 leukemia = tested on: K-562 leukemia
PC-3 prostate = tested on: PC-3 prostate
NCI-H226 lung = tested on: NCI-H226 lung
OVCAR-5 ovarian = tested on: OVCAR-5 ovarian
MDA-MB-231 breast = tested on: MDA-MB-231 breast
DU-145 prostate = tested on: DU-145 prostate
HT29 colon = tested on: HT29 colon
UACC-62 melanoma = tested on: UACC-62 melanoma
SNB-19 CNS = tested on: SNB-19 CNS
786-0 renal = tested on: 786-0 renal
CCRF-CEM leukemia = tested on: CCRF-CEM leukemia
RXF 393 renal = tested on: RXF 393 renal
SR leukemia = tested on: SR leukemia
MCF7 breast = tested on: MCF7 breast
M14 melanoma = tested on: M14 melanoma
KM12 colon = tested on: KM12 colon
SF-539 CNS = tested on: SF-539 CNS
SK-MEL-5 melanoma = tested on: SK-MEL-5 melanoma
SNB-75 CNS = tested on: SNB-75 CNS
NCI-H460 NSCLC = tested on: NCI-H460 NSCLC
TK-10 renal = tested on: TK-10 renal
EKVX NSCLC = tested on: EKVX NSCLC
T-47D breast = tested on: T-47D breast
OVCAR-3 ovarian = tested on: OVCAR-3 ovarian
HOP-92 NSCLC = tested on: HOP-92 NSCLC
UACC-257 melanoma = tested on: UACC-257 melanoma
SF-268 CNS = tested on: SF-268 CNS
ACHN renal = tested on: ACHN renal
RPMI-8226 leukemia = tested on: RPMI-8226 leukemia
MOLT-4 leukemia = tested on: MOLT-4 leukemia
A549 NSCLC = tested on: A549 NSCLC
HOP-62 NSCLC = tested on: HOP-62 NSCLC
SW-620 colon = tested on: SW-620 colon
NCI-H322M lung = tested on: NCI-H322M lung
SF-295 CNS = tested on: SF-295 CNS
A498 renal = tested on: A498 renal
HS 578T breast = tested on: HS 578T breast
MDA-MB-468 breast = tested on: MDA-MB-468 breast
MDA-MB-435 melanoma = tested on: MDA-MB-435 melanoma
MALME-3M melanoma = tested on: MALME-3M melanoma
UO-31 renal = tested on: UO-31 renal
OVCAR-4 ovarian = tested on: OVCAR-4 ovarian
U251 glioblastoma = tested on: U251 glioblastoma
SK-MEL-28 melanoma = tested on: SK-MEL-28 melanoma
NCI/ADR-RES ovarian = tested on: NCI/ADR-RES ovarian
NCI-H23 lung = tested on: NCI-H23 lung
SN12C renal = tested on: SN12C renal
OVCAR-8 ovarian = tested on: OVCAR-8 ovarian
CAKI-1 renal = tested on: CAKI-1 renal
NCI-H522 lung = tested on: NCI-H522 lung
IGROV1 ovarian = tested on: IGROV1 ovarian
LOX IMVI melanoma = tested on: LOX IMVI melanoma
HCC-2998 colon = tested on: HCC-2998 colon

c1ccc(-c2nn3c(c2-c2ccnc4cc(OCCN5CCOCC5)ccc24)CCC3)nc1
GI50 (HL-60(TB) leukemia): > 100 µM
TGI (HL-60(TB) leukemia): > 100 µM
GI50 (BT-549 breast): > 100 µM
TGI (BT-549 breast): > 100 µM
GI50 (HCT-15 colon): 37.3 µM
TGI (HCT-15 colon): > 100 µM
GI50 (SK-OV-3 ovarian): > 100 µM
TGI (SK-OV-3 ovarian): > 100 µM
GI50 (COLO 205 colon): 37.9 µM
TGI (COLO 205 colon): > 100 µM
GI50 (K-562 leukemia): 23.4 µM
TGI (K-562 leukemia): > 100 µM
GI50 (PC-3 prostate): > 100 µM
TGI (PC-3 prostate): > 100 µM
GI50 (NCI-H226 lung): > 100 µM
TGI (NCI-H226 lung): > 100 µM
GI50 (OVCAR-5 ovarian): > 100 µM
TGI (OVCAR-5 ovarian): > 100 µM
GI50 (MDA-MB-231 breast): > 100 µM
TGI (MDA-MB-231 breast): > 100 µM
GI50 (DU-145 prostate): > 100 µM
TGI (DU-145 prostate): > 100 µM
GI50 (HT29 colon): 48.2 µM
TGI (HT29 colon): > 100 µM
GI50 (UACC-62 melanoma): > 100 µM
TGI (UACC-62 melanoma): > 100 µM
GI50 (SNB-19 CNS): > 100 µM
TGI (SNB-19 CNS): > 100 µM
GI50 ([…]-0 renal): > 100 µM
TGI (786-0 renal): > 100 µM
GI50 (CCRF-CEM leukemia): 39.3 µM
TGI (CCRF-CEM leukemia): > 100 µM
GI50 (RXF 393 renal): > 100 µM
TGI (RXF 393 renal): > 100 µM
GI50 (SR leukemia): 40.3 µM
TGI (SR leukemia): > 100 µM
GI50 (MCF7 breast): 24.9 µM
TGI (MCF7 breast): > 100 µM
GI50 (M14 melanoma): > 100 µM
TGI (M14 melanoma): > 100 µM
GI50 (KM12 colon): 85.1 µM
TGI (KM12 colon): > 100 µM
GI50 (SF-539 CNS): > 100 µM
TGI (SF-539 CNS): > 100 µM
GI50 (SK-MEL-5 melanoma): 16.2 µM
TGI (SK-MEL-5 melanoma): > 100 µM
GI50 (SNB-75 CNS): > 100 µM
TGI (SNB-75 CNS): > 100 µM
GI50 (NCI-H460 NSCLC): 51.3 µM
TGI (NCI-H460 NSCLC): > 100 µM
GI50 (TK-10 renal): > 100 µM
TGI (TK-10 renal): > 100 µM
GI50 (EKVX NSCLC): > 100 µM
TGI (EKVX NSCLC): > 100 µM
GI50 (T-47D breast): > 100 µM
TGI (T-47D breast): > 100 µM
GI50 (OVCAR-3 ovarian): > 100 µM
TGI (OVCAR-3 ovarian): > 100 µM
GI50 (HOP-92 NSCLC): 85.6 µM
TGI (HOP-92 NSCLC): > 100 µM
GI50 (UACC-257 melanoma): > 100 µM
TGI (UACC-257 melanoma): > 100 µM
GI50 (SF-268 CNS): > 100 µM
TGI (SF-268 CNS): > 100 µM
GI50 (ACHN renal): 66.9 µM
TGI (ACHN renal): > 100 µM
GI50 (RPMI-8226 leukemia): 48 µM
TGI (RPMI-8226 leukemia): > 100 µM
GI50 (MOLT-4 leukemia): 4.62 µM
TGI (MOLT-4 leukemia): 17.4 µM
GI50 (A549 NSCLC): 29.9 µM
TGI (A549 NSCLC): > 100 µM
GI50 (HOP-62 NSCLC): > 100 µM
TGI (HOP-62 NSCLC): > 100 µM
GI50 (SW-620 colon): > 100 µM
TGI (SW-620 colon): > 100 µM
GI50 (NCI-H322M lung): > 100 µM
TGI (NCI-H322M lung): > 100 µM
GI50 (SF-295 CNS): > 100 µM
TGI (SF-295 CNS): > 100 µM
GI50 (A498 renal): > 100 µM
TGI (A498 renal): > 100 µM
GI50 (HS 578T breast): > 100 µM
TGI (HS 578T breast): > 100 µM
GI50 (MDA-MB-468 breast): 40.3 µM
TGI (MDA-MB-468 breast): > 100 µM
GI50 (MDA-MB-435 melanoma): > 100 µM
TGI (MDA-MB-435 melanoma): > 100 µM
GI50 (MALME-3M melanoma): > 100 µM
TGI (MALME-3M melanoma): > 100 µM
GI50 (UO-31 renal): > 100 µM
TGI (UO-31 renal): > 100 µM
GI50 (OVCAR-4 ovarian): > 100 µM
TGI (OVCAR-4 ovarian): > 100 µM
GI50 (U251 glioblastoma): > 100 µM
TGI (U251 glioblastoma): > 100 µM
GI50 (SK-MEL-28 melanoma): > 100 µM
TGI (SK-MEL-28 melanoma): > 100 µM
GI50 (NCI/ADR-RES ovarian): > 100 µM
TGI (NCI/ADR-RES ovarian): > 100 µM
GI50 (NCI-H23 lung): > 100 µM
TGI (NCI-H23 lung): > 100 µM
GI50 (SN12C renal): > 100 µM
TGI (SN12C renal): > 100 µM
GI50 (OVCAR-8 ovarian): > 100 µM
TGI (OVCAR-8 ovarian): > 100 µM
GI50 (CAKI-1 renal): 62.4 µM
TGI (CAKI-1 renal): > 100 µM
GI50 (NCI-H522 lung): 58.2 µM
TGI (NCI-H522 lung): > 100 µM
GI50 (IGROV1 ovarian): > 100 µM
TGI (IGROV1 ovarian): > 100 µM
GI50 (LOX IMVI melanoma): > 100 µM
TGI (LOX IMVI melanoma): > 100 µM
GI50 (HCC-2998 colon): > 100 µM
TGI (HCC-2998 colon): > 100 µM
